From ChEMBL document CHEMBL4706703, “Novel 3-benzylidene/benzylphthalide Mannich base derivatives as potential multifunctional agents for the treatment of Alzheimer's disease” (Bioorg Med Chem, 2021)
Activity calls are given as the source filed them. No cut-off for these calls is given here.

Tests used:
[1] = target: T1, Amine oxidase [flavin-containing] B (Homo sapiens, UniProt P27338); experiment: Inhibition of recombinant human MAOB at 10 uM using kynuramine as substrate preincubated for 30 mins followed by substrate addition and measured after 30 mins by fluorescence assay relative to control; conditions: 0.5 h
T1 sequence (P27338 whole entry): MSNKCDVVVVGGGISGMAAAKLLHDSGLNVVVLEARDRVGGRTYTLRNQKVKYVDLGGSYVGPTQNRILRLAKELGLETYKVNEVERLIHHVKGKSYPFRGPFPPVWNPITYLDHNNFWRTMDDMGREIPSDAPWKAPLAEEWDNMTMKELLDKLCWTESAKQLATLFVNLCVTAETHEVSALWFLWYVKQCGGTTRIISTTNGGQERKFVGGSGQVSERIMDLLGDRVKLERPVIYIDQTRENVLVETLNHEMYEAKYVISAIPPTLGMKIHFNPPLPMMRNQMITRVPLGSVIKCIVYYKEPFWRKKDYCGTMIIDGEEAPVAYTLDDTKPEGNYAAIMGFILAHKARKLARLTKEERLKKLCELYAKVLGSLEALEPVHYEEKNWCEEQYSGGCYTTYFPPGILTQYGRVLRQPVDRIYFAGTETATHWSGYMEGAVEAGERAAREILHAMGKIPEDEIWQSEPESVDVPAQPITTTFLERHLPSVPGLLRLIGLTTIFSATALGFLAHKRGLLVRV

[2] = target: T2, Acetylcholinesterase (Homo sapiens, UniProt P22303); experiment: Inhibition of human AChE using acetylthiocholine iodide as substrate incubated for 15 mins by Ellman's method
[3] = target: butyrylcholinesterase (BuChE) (Rattus norvegicus, UniProt Q9JKC1); experiment: Inhibition of rat serum BuChE at 10 uM using butyrylthiocholine iodide as substrate incubated for 15 mins by Ellman's method relative to control; type: cell-free; conditions: probe butyrylthiocholine iodide
[4] = target: T3, MAO-A (Homo sapiens, UniProt P21397); experiment: Inhibition of recombinant human MAOA at 10 uM using kynuramine as substrate preincubated for 30 mins followed by substrate addition and measured after 30 mins by fluorescence assay relative to control; conditions: probe kynuramine, time 60 min
T3 sequence (P21397 whole entry): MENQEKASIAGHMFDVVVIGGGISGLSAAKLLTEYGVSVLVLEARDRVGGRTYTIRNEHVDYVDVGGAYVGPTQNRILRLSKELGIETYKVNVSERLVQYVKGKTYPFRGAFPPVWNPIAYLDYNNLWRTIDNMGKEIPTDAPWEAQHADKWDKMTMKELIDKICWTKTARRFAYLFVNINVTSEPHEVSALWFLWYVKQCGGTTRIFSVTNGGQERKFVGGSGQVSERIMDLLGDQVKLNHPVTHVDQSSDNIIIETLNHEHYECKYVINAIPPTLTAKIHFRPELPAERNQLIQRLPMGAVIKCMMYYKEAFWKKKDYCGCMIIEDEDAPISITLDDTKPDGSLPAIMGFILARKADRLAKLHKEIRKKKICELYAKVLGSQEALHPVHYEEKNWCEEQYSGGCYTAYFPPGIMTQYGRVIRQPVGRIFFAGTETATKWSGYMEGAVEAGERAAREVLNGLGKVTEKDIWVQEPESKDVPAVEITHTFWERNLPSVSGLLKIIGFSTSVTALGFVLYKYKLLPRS

[5] = target: Amyloid-beta precursor protein (Homo sapiens) (UniProt P05067); experiment: Inhibition of amyloid beta (1 to 42) (unknown origin) self aggregation at 25 uM after 24 hrs by thioflavin-T fluorescence method relative to control
[6] = Antioxidant activity assessed as trolox equivalent of AAPH radical scavenging activity measured every min for 90 mins by ORAC-FL assay; type: functional
[7] = target: Acetylcholinesterase (Electrophorus electricus, UniProt O42275); experiment: Inhibition of Electrophorus electricus AChE using acetylthiocholine iodide as substrate incubated for 15 mins by Ellman's method
[8] = system: Plasma; experiment: Antiplatelet activity in rat platelet-rich plasma assessed as inhibition of ADP-induced platelet aggregation at 33 uM preincubated for 30 mins followed by ADP addition measured within 5 mins by aggregometry relative to control; type: functional; conditions: time 30-35 min
[9] = Permeability of the compound in pH 7.4 PBS/EtOH at 100 ug/ml after 18 hrs by PAMPA-BBB assay; type: ADME; conditions: dose 100 µg/ml, read-out: permeability
[10] = Inhibition of Cu2+-induced amyloid beta (1 to 42 residues) aggregation at 25 uM after 24 hrs by thioflavin T-based fluorescence assay relative to control
[11] = target: Amyloid-beta precursor protein (Homo sapiens) (UniProt P05067); experiment: Disaggregation of self-induced amyloid beta (1 to 42) (unknown origin) preformed fibrils at 25 uM measured after 24 hrs by thioflavin-T fluorescence assay relative to control
[12] = target: Acetylcholinesterase (Electrophorus electricus) (UniProt O42275); experiment: Inhibition of Electrophorus electricus AChE at 10 uM using acetylthiocholine iodide as substrate incubated for 15 mins by Ellman's method relative to control
[13] = target: T1, Amine oxidase [flavin-containing] B; experiment: Inhibition of recombinant human MAOB using kynuramine as substrate preincubated for 30 mins followed by substrate addition and measured after 30 mins by fluorescence assay
[14] = system: PC-12; experiment: Neuroprotective activity against H2O2-induced cytotoxicity in rat PC12 cells assessed as increase in cell viability at 10 uM preincubated for 2 hrs followed by H2O2 addition and measured after 24 hrs by MTT assay; type: functional, cell-based; conditions: time 26.0 hrs
[15] = target: T2, Acetylcholinesterase; experiment: Inhibition of human AChE at 10 uM using acetylthiocholine iodide as substrate incubated for 15 mins by Ellman's method relative to control
[16] = system: PC-12; experiment: Neuroprotective activity against H2O2-induced cytotoxicity in rat PC12 cells assessed as increase in cell viability at 100 uM preincubated for 2 hrs followed by H2O2 addition and measured after 24 hrs by MTT assay; type: functional, cell-based; conditions: time 26.0 hrs
[17] = system: Mus musculus; experiment: Memory improvement effect in Kunming mouse model of scopolamine-induced memory impairment assessed as reduction in number of errors at 5 mg/kg, ig administered once daily for 7 days followed by scopolamine challenge 30 mins prior to training on day 6 measured on day 7 by passive avoidance test; type: functional, organism-based; conditions: time 7.0 day
[18] = system: Mus musculus; experiment: Memory improvement effect in Kunming mouse model of scopolamine-induced memory impairment assessed as increase in latency time at 5 mg/kg, ig administered once daily for 7 days followed by scopolamine challenge 30 mins prior to training on day 6 measured on day 7 by passive avoidance test; type: functional, organism-based; conditions: time 7.0 day
[19] = system: Mus musculus; experiment: Reversal of scopolamine-induced memory impairment in Kunming mouse assessed as increase in ACh level in cerebral cortex at 5 mg/kg, ig administered once daily for 7 days followed by scopolamine challenge 30 mins prior to training trail on day 6 measured on day 7; type: functional, organism-based; conditions: time 7.0 day
[20] = system: Plasma; experiment: Antiplatelet activity in rat platelet-rich plasma assessed as inhibition of ADP-induced platelet aggregation preincubated for 30 mins followed by ADP addition measured within 5 mins by aggregometry; type: functional

Sequence of butyrylcholinesterase (BuChE) (Q9JKC1 whole entry): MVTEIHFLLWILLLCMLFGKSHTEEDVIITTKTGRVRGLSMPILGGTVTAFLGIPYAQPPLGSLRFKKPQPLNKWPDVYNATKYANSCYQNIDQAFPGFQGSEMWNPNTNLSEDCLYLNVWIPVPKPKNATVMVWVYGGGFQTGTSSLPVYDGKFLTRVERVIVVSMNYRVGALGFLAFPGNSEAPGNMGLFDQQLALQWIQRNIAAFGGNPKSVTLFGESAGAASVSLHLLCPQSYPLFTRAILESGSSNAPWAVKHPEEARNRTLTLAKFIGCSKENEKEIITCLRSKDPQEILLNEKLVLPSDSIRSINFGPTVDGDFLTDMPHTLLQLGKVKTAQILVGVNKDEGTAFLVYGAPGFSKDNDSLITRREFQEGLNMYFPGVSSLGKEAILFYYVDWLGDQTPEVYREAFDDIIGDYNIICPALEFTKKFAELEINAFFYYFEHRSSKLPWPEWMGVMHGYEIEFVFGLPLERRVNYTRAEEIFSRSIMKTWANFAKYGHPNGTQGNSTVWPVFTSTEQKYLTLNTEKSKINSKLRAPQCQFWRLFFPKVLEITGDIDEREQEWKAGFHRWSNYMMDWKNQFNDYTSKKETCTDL
Sequence of Acetylcholinesterase (Electrophorus electricus, UniProt O42275) (O42275 whole entry): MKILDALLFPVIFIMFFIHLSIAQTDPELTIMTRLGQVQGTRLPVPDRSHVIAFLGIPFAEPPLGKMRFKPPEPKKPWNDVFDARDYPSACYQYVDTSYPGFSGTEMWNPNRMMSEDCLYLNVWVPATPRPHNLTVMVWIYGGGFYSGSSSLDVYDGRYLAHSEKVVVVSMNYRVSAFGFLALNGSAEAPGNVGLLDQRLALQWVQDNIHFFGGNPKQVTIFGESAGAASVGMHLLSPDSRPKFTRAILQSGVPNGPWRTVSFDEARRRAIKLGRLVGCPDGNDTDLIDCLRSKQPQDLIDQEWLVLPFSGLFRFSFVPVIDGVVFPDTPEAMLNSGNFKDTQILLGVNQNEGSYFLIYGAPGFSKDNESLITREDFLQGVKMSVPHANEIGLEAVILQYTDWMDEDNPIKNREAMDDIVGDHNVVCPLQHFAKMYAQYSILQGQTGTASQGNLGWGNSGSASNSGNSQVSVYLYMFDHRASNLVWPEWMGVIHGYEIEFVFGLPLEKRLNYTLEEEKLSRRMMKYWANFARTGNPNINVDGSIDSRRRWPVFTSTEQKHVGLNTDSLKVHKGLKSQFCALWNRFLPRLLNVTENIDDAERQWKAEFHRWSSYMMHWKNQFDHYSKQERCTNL
T2 sequence (P22303 whole entry): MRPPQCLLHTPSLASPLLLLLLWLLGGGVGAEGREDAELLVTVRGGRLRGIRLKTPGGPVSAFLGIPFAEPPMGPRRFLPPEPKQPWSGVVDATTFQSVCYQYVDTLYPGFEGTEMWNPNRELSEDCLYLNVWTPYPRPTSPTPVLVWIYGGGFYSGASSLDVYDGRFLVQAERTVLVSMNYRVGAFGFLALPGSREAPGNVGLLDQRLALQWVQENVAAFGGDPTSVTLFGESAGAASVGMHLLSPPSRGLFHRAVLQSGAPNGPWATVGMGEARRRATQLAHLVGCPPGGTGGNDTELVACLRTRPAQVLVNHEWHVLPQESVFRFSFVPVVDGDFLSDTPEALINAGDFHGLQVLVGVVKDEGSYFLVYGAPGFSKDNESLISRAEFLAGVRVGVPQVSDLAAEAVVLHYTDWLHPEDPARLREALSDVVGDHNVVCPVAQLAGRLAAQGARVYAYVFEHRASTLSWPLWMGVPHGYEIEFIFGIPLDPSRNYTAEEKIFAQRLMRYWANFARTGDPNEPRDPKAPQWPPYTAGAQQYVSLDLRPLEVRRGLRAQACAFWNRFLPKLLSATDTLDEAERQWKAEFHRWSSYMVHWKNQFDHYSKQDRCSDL
Sequence of Amyloid-beta precursor protein (Homo sapiens) (P05067 whole entry): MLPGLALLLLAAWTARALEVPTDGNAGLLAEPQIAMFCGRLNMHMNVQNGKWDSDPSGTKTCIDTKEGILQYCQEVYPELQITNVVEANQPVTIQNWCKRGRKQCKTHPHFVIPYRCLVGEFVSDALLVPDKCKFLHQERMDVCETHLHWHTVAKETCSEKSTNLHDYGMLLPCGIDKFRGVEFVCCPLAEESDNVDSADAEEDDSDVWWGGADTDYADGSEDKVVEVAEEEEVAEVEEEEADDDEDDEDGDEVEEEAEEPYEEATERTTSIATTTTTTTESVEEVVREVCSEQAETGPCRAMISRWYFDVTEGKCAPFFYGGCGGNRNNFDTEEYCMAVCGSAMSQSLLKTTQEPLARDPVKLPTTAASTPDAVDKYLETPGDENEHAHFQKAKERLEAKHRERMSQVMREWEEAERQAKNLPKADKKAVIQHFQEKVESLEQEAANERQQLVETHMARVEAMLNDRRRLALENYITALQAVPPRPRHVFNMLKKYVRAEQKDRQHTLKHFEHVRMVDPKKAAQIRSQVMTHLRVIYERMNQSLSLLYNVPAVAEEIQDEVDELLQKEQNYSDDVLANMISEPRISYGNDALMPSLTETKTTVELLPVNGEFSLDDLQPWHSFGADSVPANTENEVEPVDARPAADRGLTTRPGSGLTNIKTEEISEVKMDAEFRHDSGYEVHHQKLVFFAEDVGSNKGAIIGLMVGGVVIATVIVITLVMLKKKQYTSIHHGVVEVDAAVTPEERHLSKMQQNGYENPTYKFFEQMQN
Sequence of Acetylcholinesterase (Electrophorus electricus) (O42275 24-633 limits assumed): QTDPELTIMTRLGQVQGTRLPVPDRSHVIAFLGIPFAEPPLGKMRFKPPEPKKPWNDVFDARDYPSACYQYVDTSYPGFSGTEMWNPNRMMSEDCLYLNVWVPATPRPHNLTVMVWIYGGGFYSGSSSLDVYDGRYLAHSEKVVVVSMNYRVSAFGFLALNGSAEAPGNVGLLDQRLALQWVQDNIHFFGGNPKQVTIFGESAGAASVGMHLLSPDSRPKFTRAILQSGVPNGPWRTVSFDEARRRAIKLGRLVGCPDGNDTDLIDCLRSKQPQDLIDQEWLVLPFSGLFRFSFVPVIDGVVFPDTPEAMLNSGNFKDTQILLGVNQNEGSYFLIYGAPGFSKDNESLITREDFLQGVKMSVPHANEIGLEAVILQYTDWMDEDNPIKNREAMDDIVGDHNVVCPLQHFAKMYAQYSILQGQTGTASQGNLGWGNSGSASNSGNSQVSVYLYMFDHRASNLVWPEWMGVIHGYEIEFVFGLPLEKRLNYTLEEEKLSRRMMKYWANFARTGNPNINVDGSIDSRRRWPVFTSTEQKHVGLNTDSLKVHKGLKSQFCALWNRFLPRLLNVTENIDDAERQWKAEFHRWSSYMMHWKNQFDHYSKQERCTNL

Row | Structure (SMILES) | inhibition at 10 µM [1] [%] | IC50 [2] [nM] | inhibition at […], 10 µM [3] [%] | inhibition at 0.5 h, 10 µM [4] [%] | inhibition [5] [%] | Activity [6] [equiv] | IC50 [7] [nM] | inhibition at 33 µM [8] [%] | inhibition [10] [%] | also measured
1 | COc1cc2c(cc1OC)/C(=C\c1ccc(O)c(N3CCCCC3)c1)OC2=O | 34.8 | 0.338 | 27.6 | 5.67 | 15.8 | 1.95 | 0.0704 | 18.4 | – | Papp at 18 h, 100 ug/ml [9]: 11.2 ×10⁻⁶ cm/s
2 | CCN(CC)c1cc(/C=C2/OC(=O)c3cc(OC)c(OC)cc32)ccc1O | 24.9 | 1.28 | 25.1 | < 5 | 33.6 | 2.62 | 0.307 | 53.8 | – | –
3 | COc1cc2c(cc1OC)C(Cc1ccc(N3CCOCC3)c(O)c1)OC2=O (stereo not drawn) | 34.7 | – | < 5 | 8.7 | 29.5 | 2.42 | 8260 | – | 9.5 | –
4 | COc1cc2c(cc1OC)/C(=C\c1ccc(N3CCCCC3)c(O)c1)OC2=O | 16.1 | 12 | 26.2 | 49.1 | 22.5 | 1.94 | 8.83 | < 5 | – | –
5 | COc1cc2c(cc1OC)/C(=C/c1ccc(N3CCCCC3)c(O)c1)OC2=O | < 5 | 50 | < 5 | 6.1 | 24.6 | 1.46 | 66 | 15.4 | – | –
6 | CCN(CC)c1cc(/C=C2\OC(=O)c3cc(OC)c(OC)cc32)ccc1O | 46.2 | 1.55 | 15.7 | < 5 | 25.9 | 2.14 | 0.383 | 45.1 | < 5 | Activity [11]: 19.9%
7 | COc1cc2c(cc1OC)C(Cc1ccc(N3CCCCC3)c(O)c1)OC2=O (stereo not drawn) | 8.6 | – | 10.3 | 14.8 | 28.9 | 2.42 | 33 | < 5 | 12.8 | –
8 | COc1cc2c(cc1OC)/C(=C/c1ccc(N3CCN(C)CC3)c(O)c1)OC2=O | – | – | < 5 | 16.5 | – | 1.36 | – | – | – | inhibition [12]: 42.4%; IC50 [13]: 1550 nM
9 | CCCCC1OC(=O)c2ccccc21 (racemic) [RAC-3-N-BUTYLPHTHALIDE] | – | – | < 5 | – | – | 0.2 | – | 9.5 | < 5 | Activity [11]: < 5%; Activity [14]: Active; inhibition [15]: < 5%
10 | COc1cc(/C=C/C(=O)CC(=O)/C=C/c2ccc(O)c(OC)c2)ccc1O | – | – | – | – | – | – | – | – | 58 | Activity [11]: 24.3%
11 | Cc1c(C)c2c(c(C)c1O)CCC(C)(C(=O)O)O2 (stereo not drawn) | – | – | – | – | – | – | – | – | – | Activity [16]: Active
12 | COc1cc2c(cc1OC)C(Cc1ccc(N3CCCC3)c(O)c1)OC2=O (stereo not drawn) | 14.6 | – | 19.8 | < 5 | 31.1 | 2.54 | 960 | < 5 | 18.5 | –
13 | COc1cc2c(cc1OC)C(=O)C(CC1CCN(Cc3ccccc3)CC1)C2 (stereo not drawn) | – | – | – | – | – | – | – | – | – | Activity [17]: Active; Activity [18]: Active; Activity [19]: Active
14 | CCN(CC)c1ccc(CC2OC(=O)c3cc(OC)c(OC)cc32)cc1O (stereo not drawn) | < 5 | – | < 5 | < 5 | 30.1 | 2.14 | 2210 | < 5 | 14.3 | –
15 | O=C1CCc2cc(OCCCCc3nnnn3C3CCCCC3)ccc2N1 [CILOSTAZOL] | – | – | – | – | – | – | – | – | – | IC50 [20]: 65100 nM
